Legend:
MeCP2 KO mice [1] = assay: symptom scoring in MeCP2 KO mice; type: in vivo, mouse
Protocol: Starting from PND 28, mice received a daily intraperitoneal injection of CBDV (or vehicle) at the dose of 2, 20 and 200 mg/kg. Animals were then scored every other day to evaluate the effect of CBDV treatment on motor symptoms (hindlimb clasping, gait, mobility) as well as neurological signs and general conditions (breathing abnormalities, tremors and general condition) present in MeCP2 knockout (KO) mice.
Each of the six symptoms was scored from 0 to 2 (0 corresponds to the symptom being absent or the same as in the wild type (WT) animal; 1 when the symptom was present; 2 when the symptom was severe).
Mobility: the mouse is observed when placed on bench, then when handled gently. 0 =as WT. 1=reduced movement when compared with WT: extended freezing period when first placed on bench and longer periods spent immobile. 2=no spontaneous movement when placed on the bench; mouse can move in response to a gentle prod or a food pellet placed nearby.
Gait: 0=as WT. 1=hind legs are spread wider than WT when walking or running with reduced pelvic elevation, resulting in a ‘waddling’ gait. 2=more severe abnormalities: tremor when feet are lifted, walks backward or ‘bunny hops’ by lifting both rear feet at once.
Hindlimb clasping: mouse observed when suspend by holding base of the tail. 0=legs splayed outward. 1=hindlimbs are drawn toward each other (without touching) or one leg is drawn into the body. 2=both legs are pulled in tightly, either touching each other or touching the body.
Tremor: mouse observed while standing on the flat palm of the hand. 0=no tremor. 1=intermittent mild tremor. 2=continuous tremor or intermittent violent tremor.
Breathing: movement of flanks observed while animal is standing still. 0=normal breathing. 1=periods of regular breathing interspersed with short periods of more rapid breathing or with pauses in breathing. 2=very irregular breathing-gasping or panting.
General condition: mouse observed for indicators of general well-being such as coat condition, eyes and body stance. 0=clean shiny coat, clear eyes, and normal stance. 1=eyes dull, coat dull/un-groomed, and somewhat hunched stance. 2=eyes crusted or narrowed, piloerection, and hunched posture.

PCP-treated rats = assay: social interaction test in sub-chronic PCP treated rats; type: in vivo, rat
Protocol: Female hooded-Lister rats were used for this experiment. Rats were housed in groups of 5 under standard laboratory conditions under a 12 hr light: dark cycle, lights on at 0700 hr. Testing was carried out in the light phase.
Rats were randomly assigned to two treatment groups and treated with vehicle, n=20 (distilled water, i.p.) or Phencyclidine hydrochloride (PCP), n=100 (2 mg/kg, i.p. twice daily for 7-days). PCP was dissolved in distilled water. This was followed by a 7-day wash out period before the rats were tested following acute treatment with CBDV, risperidone or vehicle.
Risperidone (0.1 mg/kg) was dissolved in a minimum volume of acetic acid, made up to volume with distilled water and pH adjusted to 6 with 0.1M NaOH and administered via the i.p. route in a volume of 1 ml/kg, 60 min prior to testing.
CBDV at 2, 10 or 20 mg/kg was dissolved in 2:1:17 (Ethanol:Cremofor:Saline 0.9%) and administered via the i.p. route in a volume of 5 ml/kg, 60 min prior to testing.
The social interaction test is performed in an open-field comprising a square box made of Plexiglas (52×52×31 cm) placed 27 cm above the floor on a moveable trolley. The floor of the box is white with black gridlines forming 9 identical squares on it. All other walls are black. A video camera connected to a video recorder and monitor is positioned above the box. The object used for the test consists of a heavy structure made of metal that cannot be displaced by the animals.
The rats were habituated to the test environment and arena prior to the test day. Habituation consists of placing all rats from one cage together in the empty test arena for one hour for three days including the day before the test day.
Pairs of rats, weight matched (15-20 g) and unfamiliar to each other, receiving either no treatment (n=70 “conspecific” rats) or different treatments (PCP and Vehicle; n=10 “tested” rats or PCP+Drug; n=50 “tested” rats) were placed in the test arena together for 10 min and behaviour assessed as described below.
An inanimate object such as an unopened drinks can is also placed in the centre of the arena to measure any differences in interaction of the test animal with an unfamiliar animal as opposed to an unfamiliar object. After each 10 minute trial, the object and arena are cleaned with 10% alcohol in an attempt to remove traces of any olfactory cues. All testing is carried out under standard room illumination levels (70 cd/m2).
Behaviour in both trials was recorded on video for subsequent blind scoring. A behavioural scoring software program (Hindsight, Scientific programming services) is used to score the following parameters: • Investigative sniffing behaviour: sniffing the conspecific's snout or parts of the body including the anogenital region; • Following: rat moves after the conspecific i.e. a vehicle treated rat of the same species, around the arena; • Avoidances: actively turning away when approached by the conspecific animal; • Investigation of object: exploration of object placed in centre of the arena; and • Locomotor activity is recorded by counting the total number of sectors (i.e. lines) crossed by the test rat.

MeCP2 KO mice [2] = assay: Novel Object Recognition (NOR) test in MeCP2 KO mice; type: in vivo, mouse
Protocol: Furthermore, the efficacy of CBDV in reverting/attenuating the short- and long-term memory deficits present in these mice was evaluated. The Novel Object Recognition (NOR) test was performed before the starting of the treatment Post Natal Day 28 (PND 28), at PND 41 when the first motor symptoms appear and at PND 56 and 66 when the disease is fully manifested.
At PND 28, 41, 56 and 66 the effect of CBDV on short- and long-term memory deficits was investigated through the Novel Object Recognition (NOR) test.
The experimental apparatus used for the Novel Object Recognition test was an open-field box (43×43×32 cm) made of Plexiglas, placed in a dimly illuminated room. Animals performed each test individually.
Briefly, each animal was placed in the arena and allowed to explore two identical previously unseen objects for 10 minutes (familiarization phase). After an inter-trial interval of 30 minutes and 24 hours one of the two familiar objects was replaced by a novel, previously unseen object and mice were returned to the arena for the 10-minute test phase.
During the test phase the time spent exploring the familiar object (Ef) and the new object (En) was recorded separately by two observers blind to the groups and the discrimination index was calculated as follows: [(En−Ef)/(En+Ef)]×100.

In the case of C=C(C)[C@@H]1CCC(C)=C[C@H]1c1c(O)cc(CCC)cc1O [CBDV, Cannabidivarin], the mobility (MeCP2 KO mice [1]) is reported as “reached statistical significance only at PND 64”, the breathing (MeCP2 KO mice [1]; 2 mg/kg, PND 56 to 60) is reported as “significantly improve” and the tremors (MeCP2 KO mice [1]; 2 mg/kg, PND 63) is reported as “still protective”. For the same molecule, the total symptom score (MeCP2 KO mice [1]; 2 mg/kg, every time point (PND 45, 47, 49, 55, 56, 57, 58, 60 and 64)) was “significantly improved”, the “general conditions (coat and eyes conditions)” value (MeCP2 KO mice [1]; 20 mg/kg, PND 52) was “significantly effective only at the earlier time point” and the hindlimb clasping (MeCP2 KO mice [1]; 200 mg/kg) was “did not significantly affect”. The gait (MeCP2 KO mice [1]; 200 mg/kg, PND 53 to 57) was “significantly improved”, the tremors (MeCP2 KO mice [1]; 200 mg/kg, PND 55 and 63) was “still able to reduce tremors” and the breathing (MeCP2 KO mice [1]; 200 mg/kg, PND 57 and 60) was “effective”. For the same molecule, the total symptom score (MeCP2 KO mice [1]; 200 mg/kg, from PND 47 until PND 58) was “beneficial effect”, the “general conditions (coat and eyes conditions)” value (MeCP2 KO mice [1]; 2 and 200 mg/kg, PND 52-64) was “significantly improved” and the tremors (MeCP2 KO mice [1]; all three doses, PND 45-49) was “significantly delaying and reducing”. For the same molecule, the “total symptom score: appearance of the phenotype” value (MeCP2 KO mice [1]; all three doses, vs KO-vehicle) was “delay and attenuate”, the hindlimb clasping (MeCP2 KO mice [1]; lower doses, PND 47 and 49) was “significantly attenuate” and the “PCP effects on social interaction (sniffing, following, avoiding)” value (PCP-treated rats) was “reverse these effects in a statistically significant manner”. The “time spent avoiding the other rat” value (PCP-treated rats; CBDV 20 mg/kg) was “reduce”, the “time spent following the other rat” value (PCP-treated rats; CBDV 20 mg/kg) was “increased” and the “time spent sniffing the other rat” value (PCP-treated rats; CBDV 10 and 20 mg/kg) was “significantly increased”. For the same molecule, the “cognitive impairment in short-term memory” value (MeCP2 KO mice [2]; MeCP2 KO mice, 2, 20 and 200 mg/kg, each time point (PND 41, 56, 66), 30 minutes interval) was “significantly reverted”, the “cognitive impairment in long-term memory” value (MeCP2 KO mice [2]; MeCP2 KO mice, all three doses, 24 hours interval) was “significantly counteract” and the “recognition memory (long-term)” value (MeCP2 KO mice [2]; WT littermates) was “without affecting”. For the same molecule, the “recognition memory (short-term)” value (MeCP2 KO mice [2]; WT littermates) was “without affecting”.

Source: US20190070128A1, “USE OF CANNABIDIVARIN IN THE TREATMENT OF AUTISM SPECTRUM DISORDER, ASSOCIATED DISORDERS AND SCHIZOPHRENIA” (GW Research Limited, priority 2016, published 2019)
